Among the data in ChEMBL document CHEMBL4513101, “Naegleria gruberi Pathogen Box compounds screening” (2021) are inhibition values, retold here.

Each structure is given as a SMILES string. Calls of active or inactive are those of the source. Rule as the data show it: active = inhibition of 80% or more and inactive = less.

In the experiment the test system is Naegleria gruberi. In words: microbe, parasite or virus in culture. Type of experiment: functional. As to conditions: NEG-M, CONC 10 uM.
Description: Growth inhibiting activity of Naegleria gruberi in vitro
As for `Nc1nccc2ccc(-c3ccc4nccn4c3)cc12`, the inhibition (in general, how much of the control response was suppressed) at 10 µM is 8.2% (not active).
In the case of `Cc1nc(-c2ccccn2)nc(N2CCC(Cc3ccccc3)C2)c1Cl` (configuration not stated), the inhibition at 10 µM is recorded as 38.3% (not active).
In the case of `CC1=Nc2ccc(Cl)cc2C(O)(c2ccc(C)cc2)N1CCN1CCCCC1` (configuration not stated), the inhibition at 10 µM is given as 31.1% (not active).
Take `COc1cccc(OC)c1C(=O)Nc1ccc(Cl)c(-c2nc3ccccc3s2)c1`: the inhibition at 10 µM is 19.2% (not active).
Turning to `CCOc1ccc2cc(-c3nn(CC4CCN(C)CC4)c4ncnc(N)c34)ccc2c1`, the inhibition at 10 µM was 28% (not active).
Next, `O=C(C(Cc1c[nH]c2ccccc12)NS(=O)(=O)c1ccc(Cl)cc1)N1CCCCC1` (configuration not stated): 23.3% (not active); `Cc1cccc(-c2nc(Nc3ccncn3)c3sccc3n2)n1`: 34% (not active).
Next, `CC(C)(C(=O)Nc1ccc(F)cc1)n1cc(-c2ccccc2F)cn1`: 30.2% (not active).
For `CC(C)(CN)c1nc(-c2ccc(Cl)c(O)c2)c(-c2ccnc(N)n2)[nH]1`, the inhibition at 10 µM is reported as 6.4% (not active).
In the case of `Cc1noc(C)c1COc1cccc(C(=O)N=c2[nH]cccc2C)c1`, the inhibition at 10 µM was 36.7% (not active).
In the case of `c1ccc(C[C@@H]2CN(c3nccc(Oc4ccc(-n5ccnc5)cc4)n3)CCN2)cc1`, the inhibition at 10 µM is given as 26.4% (not active).
Next, `Cc1cc(O)nc(-n2nc(C)cc2C)n1`: 3.8% (not active); `COc1ccc(Oc2ccc([C@@H](C)N(C)c3ncc4c(N)nc(N)nc4n3)cc2)cc1`: 25.6% (not active).
`COc1ccc(-c2cnc3ccc(NCc4ccc(S(N)(=O)=O)cc4)nn23)cn1`: the inhibition at 10 µM is given as 10.2% (not active).
In the case of `CCCn1c(CNc2ccccc2O)nc2ccccc21`, the inhibition at 10 µM is recorded as 39.9% (not active).
On to `CCNC(=O)C(C)Nc1nc(-c2cccnc2)nc2sc(C)c(C)c12` (configuration not stated), for which the inhibition at 10 µM is recorded as 12.2% (not active).
As for `O=S(=O)(c1ccc(Cl)cc1)N1CCN(C(=S)NCc2ccco2)CC1`, the inhibition at 10 µM was 38% (not active).
As to `COc1ccccc1CNC(=O)c1cc(C2CC2)nc2c1cnn2C(C)C`, the inhibition at 10 µM is reported as 49.8% (not active).
Take `CN1CCC(NCc2cccc(-c3ccc(S(=O)(=O)NCc4ccccc4)cc3)c2)CC1`: the inhibition at 10 µM was 14.4% (not active).
For the compound `CCCCCCCCCCCCCCCCOP(=O)([O-])OCC[N+](C)(C)C` [MILTEFOSINE], the inhibition at 10 µM was 4% (not active).
The result for `CN1CCCN(C(c2ccccc2)c2ccc(Cl)cc2)CC1` (configuration not stated) [HOMOCHLORCYCLIZINE] reads 11.6% (not active); that for `CCCS(=O)(=O)N1CCC(CO)(Cc2ccccc2C(F)(F)F)CC1`, 19% (not active); that for `COC(=O)C1=C(C)NC(C)=C(C(=O)OC(C)C)C1c1cccc2nonc12` (configuration not stated) [ISRADIPINE], 48.7% (not active).
For `O=C(c1ccco1)N(CCCn1ccnc1)c1nc2c(Cl)cccc2s1`, the inhibition at 10 µM is 68.6% (not active).
As to `CC(Oc1cccc(Cl)c1)C(=O)Nc1ccc2oc(-c3ccncc3)nc2c1` (configuration not stated), the inhibition at 10 µM is reported as 35.9% (not active).
The result for `Cc1cc(Cl)c(S(=O)(=O)N2CCCC2)cc1OCC(=O)NC1CCCCC1` reads 11% (not active); that for `CCOc1ccc(OCC(=O)Nc2cc(C)cc(C)c2)cc1`, 0% (not active); that for `CC(=O)N1CCN(c2ccc(Oc3ccc(Cl)cc3O)cc2)CC1`, 0% (not active).
Take `Clc1cccc(C(c2ccc(CN3CCNCC3)cc2)n2ccnc2)c1` (configuration not stated): the inhibition at 10 µM is reported as 20.3% (not active).
Regarding `Cc1cc(C(=O)Nc2ccc(-c3ccccc3)cc2)no1`, the inhibition at 10 µM was 35.7% (not active).
The result for `N#Cc1nc(-c2ccccc2)oc1S(=O)(=O)c1ccc(Cl)cc1` reads 9.4% (not active).
As to `Cc1cccc(C(=O)Nc2ccnc(N(C)C3CCN(CC(C)C)CC3)c2)c1`, the inhibition at 10 µM is 35.1% (not active).
The result for `Nc1ncnc2c1c(Cc1cccc3ccccc13)nn2CC1CCNCC1` reads 11.4% (not active); that for `CCOC(=O)c1noc(N)c1-c1ccccc1`, 0% (not active); that for `COc1ccc(C2(C(=O)Nc3ccc(Br)cc3)CCCC2)cc1`, 11.1% (not active).
Turning to `Cc1cc(NC(=O)c2ccc(S(=O)(=O)N(Cc3ccccc3)C(C)C)cc2)no1`, the inhibition at 10 µM is 0% (not active).
As for `COc1cncc(-c2cncc(N3CCN(c4ccncc4)CC3)n2)c1`, the inhibition at 10 µM is 26.8% (not active).
Regarding `Cc1ccc(C(=O)Nc2ccc(S(=O)(=O)O)c3cc(S(=O)(=O)O)cc(S(=O)(=O)O)c23)cc1NC(=O)c1cccc(NC(=O)Nc2cccc(C(=O)Nc3cc(C(=O)Nc4ccc(S(=O)(=O)O)c5cc(S(=O)(=O)O)cc(S(=O)(=O)O)c45)ccc3C)c2)c1` [SURAMIN], the inhibition at 10 µM is 32% (not active).
Regarding `CC[C@@H]([C@H](C)O)n1ncn(-c2ccc(N3CCN(c4ccc(OC[C@@H]5CO[C@@](Cn6cncn6)(c6ccc(F)cc6F)C5)cc4)CC3)cc2)c1=O` [POSACONAZOLE], the inhibition at 10 µM was 84.8% (active).
On to `CCC(Sc1nc2ccccc2o1)C(=O)Nc1nccs1` (configuration not stated), for which the inhibition at 10 µM was 44.3% (not active).
With `c1csc(-c2cnc3sc(NCC4CCOCC4)nn23)c1`, the inhibition at 10 µM is on record as 39.9% (not active).
As to `COc1ccccc1C(C)NCC(=O)Nc1cc(C(F)(F)F)ccc1Cl` (configuration not stated), the inhibition at 10 µM is 49.5% (not active).
Next, `Nc1ncc(-c2cn[nH]c2)cc1-c1nc2cc(Cl)cnc2[nH]1`: 10.2% (not active); `COc1ccc(OC(C)C(=O)Nc2ccc(Cl)cc2C)cc1` (configuration not stated): 34% (not active).
In the case of `FC(F)(F)c1nnc2ccc(Cl)nn12`, the inhibition at 10 µM is listed as 16.8% (not active).
Next, `CN1CCN(S(=O)(=O)c2ccc(-c3ccc4c(Nc5ncc(Cl)cn5)ccnc4c3)cc2)CC1`: 43.6% (not active); `CCOC(=O)c1c(NC(=O)c2c(F)c(F)c(F)c(F)c2F)sc(C(N)=O)c1C`: 5.8% (not active); `Brc1c(-c2ccc3c(c2)OCO3)nc2ncccn12`: 39.1% (not active).
Turning to `CC(C)(C)OC(=O)N1CCN(c2nccc(-c3ccc(-c4ccc(Cl)cc4)s3)n2)CC1`, the inhibition at 10 µM was 17% (not active).
`c1ccc(Oc2ccc(-c3cc(N4CCNCC4)[nH]n3)cc2)cc1`: the inhibition at 10 µM is 0% (not active).
Regarding `CNc1cc(C)nc(C2CN(C(=O)c3n[nH]c4ccccc34)CCO2)c1` (configuration not stated), the inhibition at 10 µM is reported as 24.2% (not active).
The result for `COc1ccc(-c2cncc3ccc(C(=O)NCCCn4ccnc4)nc23)cc1` reads 5.8% (not active); that for `CC(C)(C)CN1C(=O)C(c2ccccc2)(c2ccccc2)N=C1N`, 19.2% (not active); that for `CC(C)(C)[C@H]1CC[C@H](CC2=C(O)C(=O)c3ccccc3C2=O)CC1` [BUPARVAQUONE], 92.9% (active).
As to `Cc1[nH]c2ccccc2c1C(c1cccs1)N1CCN(C)CC1` (configuration not stated), the inhibition at 10 µM is 23.9% (not active).
Regarding `CC(=O)Nc1ccc(NC(=O)c2cc(-c3cc(Cl)ccc3O)n[nH]2)cc1`, the inhibition at 10 µM is listed as 8.8% (not active).
As for `CC1=Nc2ccc(Cl)cc2C(c2ccccc2)N1CCNC(=O)CN(C)C` (configuration not stated), the inhibition at 10 µM is 4.7% (not active).
